According to a compilation of properties of binary mixtures (doi:10.1021/acs.jced.2c00024):

Experiment: xn = mol fraction of the nth substance listed
Details: 101 kPa

O=C1CCCO1 + [S-]C#N.COCCN1C=[N+](C=C1)C
x2 = 0
Details	viscosity [mPa·s]
288.15 K	2.02
293.15 K	1.86
298.15 K	1.72
303.15 K	1.59
308.15 K	1.48
318.15 K	1.29
323.15 K	1.21
328.15 K	1.14
333.15 K	1.08
338.15 K	1.02
343.15 K	0.97

COCCn1cc[n+](C)c1.N#C[S-] + O=C1CCCO1
Details	electrical conductivity [S/m]	viscosity [mPa·s]
288.15 K, x1 = 0.1027	1.29	3.05
288.15 K, x1 = 0.1999	1.4	4.19
288.15 K, x1 = 0.3001	1.28	5.5
288.15 K, x1 = 0.4001	1.08	7.8
288.15 K, x1 = 0.5006	0.874	13
288.15 K, x1 = 0.6015	0.686	21.8
288.15 K, x1 = 0.8038	0.399	51
288.15 K, x1 = 0.9012	0.301	68
293.15 K, x1 = 0.1027	1.41	2.73
293.15 K, x1 = 0.1999	1.55	3.64
293.15 K, x1 = 0.3001	1.44	4.79
293.15 K, x1 = 0.4001	1.24	6.7
293.15 K, x1 = 0.5006	1.02	10.8
293.15 K, x1 = 0.6015	0.819	17.3
293.15 K, x1 = 0.7036	0.645	26.8
293.15 K, x1 = 0.9012	0.395	53
293.15 K, x1 = 1	0.315	67
298.15 K, x1 = 0.1027	1.54	2.44
298.15 K, x1 = 0.1999	1.72	3.18
298.15 K, x1 = 0.4001	1.42	5.8
298.15 K, x1 = 0.5006	1.19	9
298.15 K, x1 = 0.6015	0.975	13.9
298.15 K, x1 = 0.7036	0.788	21.1
298.15 K, x1 = 0.8038	0.636	30.3
298.15 K, x1 = 0.9012	0.516	42
303.15 K, x1 = 0.1027	1.68	2.21
303.15 K, x1 = 0.1999	1.89	2.82
303.15 K, x1 = 0.4001	1.61	5.1
303.15 K, x1 = 0.5006	1.38	7.7
303.15 K, x1 = 0.6015	1.16	11.5
303.15 K, x1 = 0.7036	0.958	17.1
303.15 K, x1 = 0.8038	0.785	24.4
303.15 K, x1 = 0.9012	0.642	33.3
303.15 K, x1 = 1	0.52	42.1
308.15 K, x1 = 0.1027	1.82	2
308.15 K, x1 = 0.1999	2.08	2.51
308.15 K, x1 = 0.3001	2.02	3.27
308.15 K, x1 = 0.4001	1.82	4.49
308.15 K, x1 = 0.5006	1.59	6.5
308.15 K, x1 = 0.7036	1.14	14.1
308.15 K, x1 = 0.8038	0.951	19.9
308.15 K, x1 = 1	0.653	34.4
313.15 K, x1 = 0.1999	2.27	2.25
313.15 K, x1 = 0.3001	2.21	2.89
313.15 K, x1 = 0.4001	2.02	3.94
313.15 K, x1 = 0.6015	1.56	8.2
313.15 K, x1 = 0.8038	1.12	16.5
313.15 K, x1 = 0.9012	0.95	22.5
313.15 K, x1 = 1	0.795	28.6
318.15 K, x1 = 0.1027	2.16	1.66
318.15 K, x1 = 0.1999	2.47	2.03
318.15 K, x1 = 0.5006	2.03	4.92
318.15 K, x1 = 0.6015	1.78	7
318.15 K, x1 = 0.7036	1.54	10.2
318.15 K, x1 = 0.8038	1.32	14
318.15 K, x1 = 0.9012	1.13	18.9
318.15 K, x1 = 1	0.954	23.7
323.15 K, x1 = 0.1027	2.35	1.53
323.15 K, x1 = 0.3001	2.66	2.34
323.15 K, x1 = 0.6015	2	6.1
323.15 K, x1 = 0.8038	1.51	11.9
323.15 K, x1 = 0.9012	1.31	16
323.15 K, x1 = 1	1.12	20
328.15 K, x1 = 0.1027	2.55	1.41
328.15 K, x1 = 0.1999	2.92	1.69
328.15 K, x1 = 0.3001	2.9	2.1
328.15 K, x1 = 0.4001	2.74	2.79
328.15 K, x1 = 0.5006	2.5	3.75
328.15 K, x1 = 0.6015	2.25	5.4
328.15 K, x1 = 0.7036	1.99	7.6
328.15 K, x1 = 0.8038	1.74	10.4
328.15 K, x1 = 1	1.32	17.2
333.15 K, x1 = 0.1999	3.15	1.56
333.15 K, x1 = 0.3001	3.16	1.9
333.15 K, x1 = 0.4001	2.98	2.5
333.15 K, x1 = 0.5006	2.75	3.35
333.15 K, x1 = 0.6015	2.48	4.81
333.15 K, x1 = 0.7036	2.21	6.8
333.15 K, x1 = 0.8038	1.95	9.2
333.15 K, x1 = 0.9012	1.72	12.1
333.15 K, x1 = 1	1.51	14.8
338.15 K, x1 = 0.1027	2.98	1.21
338.15 K, x1 = 0.1999	3.41	1.43
338.15 K, x1 = 0.3001	3.42	1.73
338.15 K, x1 = 0.4001	3.26	2.23
338.15 K, x1 = 0.5006	3.02	2.95
338.15 K, x1 = 0.8038	2.19	8.1
338.15 K, x1 = 0.9012	1.95	10.6
338.15 K, x1 = 1	1.72	12.9
343.15 K, x1 = 0.1027	3.21	1.13
343.15 K, x1 = 0.1999	3.66	1.33
343.15 K, x1 = 0.3001	3.71	1.62
343.15 K, x1 = 0.4001	3.54	2.06
343.15 K, x1 = 0.6015	3	3.86
343.15 K, x1 = 0.8038	2.42	7.3
343.15 K, x1 = 0.9012	2.15	9.5
343.15 K, x1 = 1	1.92	11.3
